Earlier results in patent publication US8859560B2, “Treating attention deficit hyperactivity disorder with NHE inhibitors” (The Research Foundation of State University of New York, priority 2012, dated 2014).

Experiments:
[1] = system: sodium/hydrogen exchanger (NHE) subtypes; settings: for NHE subtype selectivity of inhibition: prior knowledge from Masereel et al. 2003
[2] = pediatric patients, extended-release tablets (Jain et al. 2011)

Row | Compound | NHE subtype selectivity of inhibition [1] | Inhibition of plasma membrane NHEs ([1]; plasma membrane NHEs (NHE1-NHE5)) | Efficacy as drug for ADHD [2]
1 | CC(C)c1ccc(C(=O)NC(=N)N)cc1S(C)(=O)=O [cariporide] | selectively inhibits NHE1 |  | 
2 | N=C(N)NC(=O)c1nc(Cl)c(N)nc1N [amiloride] | limited NHE subtype selectivity |  | 
3 | C=C[C@H]1C[N@@]2CC[C@H]1C[C@H]2[C@H](O)c1ccnc2ccc(OC)cc12 [quinine] | selectively inhibits NHE7 |  | 
4 | COc1ccc2c3c([nH]c2c1)C(C)=NCC3 [harmaline] | selectively inhibits NHE5 |  | 
5 | Clc1cccc(Cl)c1N=C1NCCN1 [clonidine] |  | modest inhibitor | moderately efficacious
6 | CC(=Cc1cc(C)ccc1C=C(C)C(=O)NC(=N)N)C(=O)N=C(C)C [S3226] | selectively inhibits NHE3 |  | 
